Where “and” joins values, the source holds several entries; their conditions need not be identical. Equal entries are not always repeated. Toxic doses and inconclusive results are not listed. Rule as the data show it: active = T/C of 150% or more; inactive = T/C below 125%.
Test system: L1210 leukemia ip in BDF1 mice, survival T/C
Assay: NCI In Vivo Anticancer Drug Screen. Data for tumor model L1210 Leukemia (intraperitoneal) in B6D2F1 (BDF1) mice
Details: endpoint: mean survival time, higher = longer survival
Procedure, shortened: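 Transplantable tumor model; survival measured in treated vs vehicle control mice. Value = treated/control.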

[1] = dose: 25.0 mg/kg/injection, schedule: Q01DX009 (ip), vehicle: Klucel (hydroxypropylcellulose) (HPC)
[2] = dose: 50.0 mg/kg/injection, schedule: Q01DX009 (ip), vehicle: Klucel (hydroxypropylcellulose) (HPC)
[3] = dose: 100.0 mg/kg/injection, schedule: Q01DX009 (ip), vehicle: Klucel (hydroxypropylcellulose) (HPC)
[4] = dose: 75.0 mg/kg/injection, schedule: Q01DX001 (ip), vehicle: saline
[5] = dose: 100.0 mg/kg/injection, schedule: Q04DX002 (ip), vehicle: Klucel (hydroxypropylcellulose) (HPC)
[6] = dose: 200.0 mg/kg/injection, schedule: Q01DX009 (ip), vehicle: Klucel (hydroxypropylcellulose) (HPC)
[7] = dose: 200.0 mg/kg/injection, schedule: Q04DX002 (ip), vehicle: Klucel (hydroxypropylcellulose) (HPC)
[8] = dose: 100.0 mg/kg/injection, schedule: Q04DX003 (ip), vehicle: Klucel (hydroxypropylcellulose) (HPC)
[9] = dose: 400.0 mg/kg/injection, schedule: Q01DX009 (ip), vehicle: Klucel (hydroxypropylcellulose) (HPC)

Measured: T/C

O=C(Nc1ccccc1)Oc1c(Cl)cc(Cl)c(Cl)c1[N+](=O)[O-]
inactive: [1] 100 % of control | [2] 93 % of control | [3] 91 % of control

CCCCC(CC)COP(=O)(OCC(CC)CCCC)c1ccccc1 (centres undefined)
inactive: dose: 50.0 mg/kg/injection, schedule: Q01DX001 (ip), vehicle: saline 100 % of control | dose: 100.0 mg/kg/injection, schedule: Q01DX001 (ip), vehicle: saline 100 % of control

Clc1nc(Cl)c(CBr)c(Cl)n1
inactive: dose: 1.0 mg/kg/injection, schedule: Q01DX Z (ip), vehicle: carboxymethylcellulose (CMC) 96 % of control | dose: 2.0 mg/kg/injection, schedule: Q01DX Z (ip), vehicle: carboxymethylcellulose (CMC) 96 % of control | dose: 4.0 mg/kg/injection, schedule: Q01DX Z (ip), vehicle: carboxymethylcellulose (CMC) 96 % of control | dose: 8.0 mg/kg/injection, schedule: Q01DX Z (ip), vehicle: carboxymethylcellulose (CMC) 94 % of control | dose: 10.0 mg/kg/injection, schedule: Q01DX001 (ip), vehicle: carboxymethylcellulose (CMC) 96 % of control | dose: 16.0 mg/kg/injection, schedule: Q01DX009 (ip), vehicle: carboxymethylcellulose (CMC) 103 % of control | dose: 20.0 mg/kg/injection, schedule: Q01DX001 (ip), vehicle: carboxymethylcellulose (CMC) 93 % of control | dose: 40.0 mg/kg/injection, schedule: Q01DX001 (ip), vehicle: carboxymethylcellulose (CMC) 93 % of control

CCCCCCCCCCCCCCCCCCNc1ccc(C(=O)OCC)cc1
inactive: dose: 37.5 mg/kg/injection, schedule: Q01DX009 (ip), vehicle: saline 94 % of control | [4] 86 % of control | dose: 75.0 mg/kg/injection, schedule: Q01DX009 (ip), vehicle: saline 95 % of control | dose: 75.0 mg/kg/injection, schedule: Q04DX003 (ip), vehicle: saline 87 % of control | dose: 150.0 mg/kg/injection, schedule: Q01DX009 (ip), vehicle: saline 96 % of control | dose: 150.0 mg/kg/injection, schedule: Q04DX003 (ip), vehicle: saline 87 % of control | dose: 300.0 mg/kg/injection, schedule: Q01DX001 (ip), vehicle: saline 88 % of control | dose: 300.0 mg/kg/injection, schedule: Q04DX003 (ip), vehicle: saline 92 % of control

O=C(O)C1C2C=CC(CO)(O2)C1C(=O)O (centres undefined)
inactive: dose: 100.0 mg/kg/injection, schedule: Q01DX009 (ip), vehicle: saline 97 % of control | dose: 100.0 mg/kg/injection, schedule: Q04DX003 (ip), vehicle: saline 97 % of control | dose: 200.0 mg/kg/injection, schedule: Q01DX009 (ip), vehicle: saline 100 % of control | dose: 200.0 mg/kg/injection, schedule: Q04DX003 (ip), vehicle: saline 92 % of control | dose: 400.0 mg/kg/injection, schedule: Q01DX009 (ip), vehicle: saline 96 % of control | dose: 400.0 mg/kg/injection, schedule: Q04DX003 (ip), vehicle: saline 95 % of control

CN(C)C1CCC(/C=C(\C#N)C2CCC([N+](=O)[O-])CC2)CC1 (centres undefined)
inactive: dose: 25.0 mg/kg/injection, schedule: Q04DX002 (ip), vehicle: Klucel (hydroxypropylcellulose) (HPC) 109 % of control | [2] 106 % of control | dose: 50.0 mg/kg/injection, schedule: Q04DX002 (ip), vehicle: Klucel (hydroxypropylcellulose) (HPC) 95 % of control | [3] 106 % of control | [5] 95 % of control | [6] 102 % of control | [7] 95 % of control and 100 % of control | dose: 400.0 mg/kg/injection, schedule: Q04DX002 (ip), vehicle: Klucel (hydroxypropylcellulose) (HPC) 103 % of control

CCCCCCCCCCCCCCCCCCNC(=O)Nc1c(C)cc(C)cc1C
inactive: dose: 100.0 mg/kg/injection, schedule: Q01DX009 (ip), vehicle: gum acacia 94 % of control | dose: 100.0 mg/kg/injection, schedule: Q04DX003 (ip), vehicle: gum acacia 90 % of control | dose: 200.0 mg/kg/injection, schedule: Q01DX009 (ip), vehicle: gum acacia 87 % of control | dose: 200.0 mg/kg/injection, schedule: Q04DX003 (ip), vehicle: gum acacia 93 % of control | dose: 400.0 mg/kg/injection, schedule: Q01DX009 (ip), vehicle: gum acacia 94 % of control | dose: 400.0 mg/kg/injection, schedule: Q04DX003 (ip), vehicle: gum acacia 87 % of control

CCOCCO
inactive: dose: 5.0 mg/kg/injection, schedule: Q01DX009 (ip), vehicle: saline 97 % of control | dose: 10.0 mg/kg/injection, schedule: Q01DX009 (ip), vehicle: saline 90 % of control | dose: 20.0 mg/kg/injection, schedule: Q01DX009 (ip), vehicle: saline 98 % of control

O=C1c2ccccc2C(Cl)=C(Cl)C1(Cl)Cl
inactive: [1] 90 % of control | [2] 90 % of control | [3] 90 % of control | [8] 96 % of control

COC(=O)C1=C(c2ccncc2)c2cccc3cccc1c23
inactive: dose: 100.0 mg/kg/injection, schedule: Q04DX003 (ip), vehicle: alcohol 94 % of control | dose: 200.0 mg/kg/injection, schedule: Q04DX003 (ip), vehicle: alcohol 102 % of control

O=C(Oc1ccc(S(=O)(=O)F)cc1F)c1ccccc1Cl
inactive: [5] 95 % of control | [7] 89 % of control

CCCCNC(=O)Nc1ccc(C(=O)OCC)cc1
inactive: [3] 98 % of control | [8] 95 % of control | [6] 98 % of control | dose: 200.0 mg/kg/injection, schedule: Q04DX003 (ip), vehicle: Klucel (hydroxypropylcellulose) (HPC) 96 % of control | [9] 88 % of control | dose: 400.0 mg/kg/injection, schedule: Q04DX003 (ip), vehicle: Klucel (hydroxypropylcellulose) (HPC) 94 % of control

N#CC1(C#N)C2C=CC(C3CC=CC32)C1(C#N)C#N (centres undefined)
inactive: dose: 12.5 mg/kg/injection, schedule: Q01DX009 (ip), vehicle: saline with Tween-80 101 % of control | dose: 25.0 mg/kg/injection, schedule: Q01DX009 (ip), vehicle: saline with Tween-80 97 % of control | dose: 25.0 mg/kg/injection, schedule: Q04DX003 (ip), vehicle: saline with Tween-80 108 % of control | dose: 50.0 mg/kg/injection, schedule: Q04DX003 (ip), vehicle: saline with Tween-80 105 % of control | dose: 100.0 mg/kg/injection, schedule: Q04DX003 (ip), vehicle: saline with Tween-80 93 % of control

CCCCCCCCCCOc1ccc(C=Nc2ccc(CC)cc2)cc1
inactive: [3] 103 % of control | [6] 90 % of control | [9] 93 % of control

O=C(O)C(Cl)C(=O)O
inactive: dose: 4.68 mg/kg/injection, schedule: Q01DX009 (ip), vehicle: saline 102 % of control | dose: 9.37 mg/kg/injection, schedule: Q01DX009 (ip), vehicle: saline 102 % of control | dose: 18.75 mg/kg/injection, schedule: Q01DX009 (ip), vehicle: saline 94 % of control | dose: 18.75 mg/kg/injection, schedule: Q04DX003 (ip), vehicle: saline 105 % of control | dose: 37.5 mg/kg/injection, schedule: Q04DX003 (ip), vehicle: saline 97 % of control | [4] 107 % of control

COc1cc(Cl)ccc1NC(=O)C(O)C(O)C(O)C(O)CO (centres undefined)
inactive: dose: 100.0 mg/kg/injection, schedule: Q01DX001 (ip), vehicle: other 97 % of control | dose: 100.0 mg/kg/injection, schedule: Q01DX009 (ip), vehicle: other 100 % of control and 103 % of control | dose: 100.0 mg/kg/injection, schedule: Q04DX002 (ip), vehicle: other 98 % of control and 103 % of control | dose: 100.0 mg/kg/injection, schedule: Q04DX003 (ip), vehicle: carboxymethylcellulose (CMC) 103 % of control | dose: 200.0 mg/kg/injection, schedule: Q01DX001 (ip), vehicle: other 90 % of control | dose: 200.0 mg/kg/injection, schedule: Q01DX009 (ip), vehicle: other 94 % of control and 97 % of control | dose: 200.0 mg/kg/injection, schedule: Q04DX002 (ip), vehicle: other 98 % of control and 92 % of control | dose: 200.0 mg/kg/injection, schedule: Q04DX003 (ip), vehicle: carboxymethylcellulose (CMC) 100 % of control | dose: 400.0 mg/kg/injection, schedule: Q01DX001 (ip), vehicle: other 101 % of control | dose: 400.0 mg/kg/injection, schedule: Q01DX009 (ip), vehicle: other 95 % of control and 97 % of control | dose: 400.0 mg/kg/injection, schedule: Q04DX002 (ip), vehicle: other 103 % of control and 113 % of control | dose: 400.0 mg/kg/injection, schedule: Q04DX003 (ip), vehicle: carboxymethylcellulose (CMC) 103 % of control

Source: PubChem BioAssay AID248 (DTP/NCI, 2004)
